Measurements reported in US9351915B2, “Ascorbic acid derivative composition and production method of the same, ascorbic acid derivative solution, and skin external preparation” (SHOWA DENKO K.K., priority 2012, dated 2016).

Tests used:
[1] = Storage stability test (aqueous solution, residual ratio by HPLC); type: physicochemical; conditions: 2% by mass ascorbic acid derivative in purified water, glass bottle with lid, 10 days at 40° C., light shielding; total of 2- and 3-phosphate salts
Description: The sodium salt of L-ascorbic acid-2-phosphoric acid-6-palmitate obtained in Production Example 2 and the sodium salt of L-ascorbic acid-3-phosphoric acid-6-palmitate obtained in Production Example 4 were mixed at a ratio (% by mass) shown in Table 1 to prepare ascorbic acid derivative compositions of Examples 1 to 3.
The mixture obtained in Production Example 6 ((sodium salt of L-ascorbic acid-2-phosphoric acid-6-palmitate): (sodium salt of L-ascorbic acid-3-phosphoric acid-6-palmitate)=97.7:2.3 (mass ratio)) was used as it is as an ascorbic acid derivative composition of Example 4. […]
The concentration of ascorbic acid derivative in each of the solutions obtained before standing (immediately after preparation) and after standing for 10 days was measured, and the “residual ratio” was determined from the results by the following formula.
The concentration of ascorbic acid derivative contained in the solution was measured by the same measuring conditions as in the evaluation of the yield, with a high performance liquid chromatography apparatus using the Shodex SB 802.5 HQ column (manufactured by Showa Denko K.K.). […]

[2] = Solubility test (time until solid is absent in aqueous medium); type: physicochemical; conditions: 20° C., 500 rpm, visual observation every 5 minutes
Experimental: Each substance shown in Table 2 was prepared at the ratio (% by mass) indicated in Table 2 so that the total amount was 100 g. First, pure water or a mixture of pure water and methanol serving as a solvent was placed in a beaker having a capacity of 200 mL, and the beaker was immersed in a water bath which was controlled to 20° C. Then, stirring was performed at a rotational speed of 500 rpm with a stirrer chip having a diameter of 2.5 cm, and the ascorbic acid derivative was mixed at the point where the liquid temperature reached 20° C. This time point was set as the zero point and the time (min) until the solid became absent in the mixture was measured. As for the end point, visual observation was carried out every 5 minutes from the start of the stirring, and the time point at which the mixture became clear was determined as the end point.

Compound | Residual ratio (%) [1] [%] | also measured
CCCCCCCCCCCCCCCC(=O)OCC(O)C1OC(=O)C(OP(=O)([O-])[O-])=C1[O-].[Na+].[Na+].[Na+] [Comp. Ex. 1, Sodium salt of L-ascorbic acid-2-phosphoric acid-6-palmitate] | 88.6 | 
CCCCCCCCCCCCCCCC(=O)OCC(O)C1OC(=O)C([O-])=C1OP(=O)([O-])[O-].[Na+].[Na+].[Na+] [Comp. Ex. 2, Sodium salt of L-ascorbic acid-3-phosphoric acid-6-palmitate] | 83.9 | 
CCCCCCCCCCCCCCCC(=O)OCC(O)C1OC(=O)C(OP(=O)([O-])[O-])=C1[O-].[Na+].[Na+].[Na+] [Comp. Ex. 3, Sodium salt of L-ascorbic acid-2-phosphoric acid-6-palmitate] |  | Time required for dissolution ([2]; 10% by mass ascorbic acid derivative in 90% by mass pure water): 50 min
CCCCCCCCCCCCCCCC(=O)OCC(O)C1OC(=O)C(OP(=O)([O-])[O-])=C1[O-].[Na+].[Na+].[Na+] [Comp. Ex. 4, Sodium salt of L-ascorbic acid-2-phosphoric acid-6-palmitate] |  | Time required for dissolution ([2]; 10% by mass ascorbic acid derivative in 70% by mass pure water + 20% by mass methanol): 65 min
